Test results taken from EP0060179A1, “Pharmaceutical compositions having anorectic activity” (SANOFI S.A., priority 1981, dated 1982).
Read-outs that look alike come from different tables or passages of the source. Marks after values point to notes of the source that are not given here.

Experiments:
[1] = Acute toxicity (DL50) in the rat; conditions: in vivo
Excerpt: (§1) Dans le tableau I sont reportés, pour cinq composés représentatifs utiles comme ingrédients actifs dans les compositions selon l'invention: • - la toxicité aiguë, exprimée comme DL50 chez le rat par voie orale ou par voie intrapéritonéale (donnée A); • - l'activité anorexigène, exprimée comme dose orale ou intrapéritonéale inhibant de 50% la prise de nourriture (DE50, donnée B); • - le rapport entre la toxicité aiguë et l'activité anorexigène qui exprime l'index thérapeutique lié à la toxicité aiguë (donnée A/B).

[2] = system: prise de nourriture chez le rat; experiment: Anorectic activity, food intake method in the rat; format: in vivo; conditions: for A/B (index thérapeutique lié à la toxicité aiguë): DL50/DE50; for ED50: 1 h, rat, 30 minutes before food, food consumed in first hour, read-out: B DE50 (dose inhibant de 50% la prise de nourriture)
Experimental: L'activité anorexigène a été évaluée par la méthode de la prise de nourriture chez le rat. On a utilisé des rats femelles de 200 g entrainés pendant 10 jours à manger durant une période de 4 heures et sélectionnés au huitième jour. Au bout du dixième jour, les animaux randomisés ont été divisés en un "groupe contrôle", traité par le seul véhicule, et en plusieurs "groupes traités". Le traitement a été effectué par voie orale et/ou intrapéritonéale 30 minutes avant la présentation de la nourriture et, ensuite, on a mesuré la quantité de nourriture consommée au cours de la première heure.
as §1

[3] = system: taux cérébraux de sérotonine; experiment: Brain serotonin levels after administration (Curzon and Green method); format: in vivo
Excerpt: En particulier, les composés utilisés comme principes actifs des compositions pharmaceutiques de la présente invention, in vivo, ne provoquent pas de déplétion de sérotonine au niveau central. Le tableau II ci-dessous résume les taux cérébraux de sérotonine, en pourcentage par rapport aux contrôles, après administration orale ou intrapéritonéale de quatre ingrédients actifs des compositions pharmaceutiques de la présente invention. La détermination des taux cérébraux, selon Curzon et Green (Brit. J. Pharmacol. 39, 653, 1970), a été effectuée une heure et/ou deux heures après l'administration. La fenfluramine a été utilisée comme produit de référence.

[4] = biological target: récepteurs post-synaptiques de la sérotonine; experiment: 3H-serotonin binding to rat cortex membranes (Peroutka and Snyder method); conditions: fixed concentration of 3H-serotonin
Excerpt: L'affinité des composés de la présente invention pour les récepteurs post-synaptiques de la' sérotonine a été déterminée selon la méthode de Peroutka et Snyder (Molec. Pharmacol. 1979, 16, 687-699) qui consiste à incuber des membranes de cortex de rat avec une concentration fixée de ^3H-sérotonine en présence de différentes concentrations de produit. Le tableau III montre la concentration molare de trois ingrédients actifs représentatifs de la présente invention qui donne une inhibition de 50% du binding spécifique au récepteur sérotoninergique (IC50), à savoir la mesure de la capacité du produit d'intéragir avec la ^3H-sérotonine dans le binding à son récepteur. La fenfluramine et la 3-(3-trifluorométhylphényl)-1-propyl-1,2,5,6-tétrahydropyridine (Composé A), décrite par le brevet allemand 2 904 826, ont été utilisées comme composés de référence.

## FC(F)(F)c1cccc(C2=CCN(Cc3ccccc3)CC2)c1 [CM 57451, chlorhydratede 4-(3-trifluorométhylphényl)-1-benzyl-1,2,3,6-tétrahydropyridine]
[1]; ip
  LD50: 220 mg/kg
[1]; po, os
  LD50: 600 mg/kg
[2]; i.p.
  A/B (index thérapeutique lié à la toxicité aiguë): 14,6
[2]; ip, i.p.
  ED50: 15 mg/kg
[2]; os
  A/B (index thérapeutique lié à la toxicité aiguë): 33,3
[2]; po, os
  ED50: 18 mg/kg
[3]; i.p., 15 mg/kg, 1 h.
  taux cérébraux de sérotonine % par rapport aux contrôles: 121,2%
[3]; i.p., 15 mg/kg, 2 h.
  taux cérébraux de sérotonine % par rapport aux contrôles: 112,0%
[3]; i.p., 30 mg/kg, 2 h.
  taux cérébraux de sérotonine % par rapport aux contrôles: 119,0%

## CCNC(C)Cc1cccc(C(F)(F)F)c1 (stereo not drawn) [fenfluramine, reference compound]
[1]; ip
  LD50: 85.6 mg/kg
[1]; po, os
  LD50: 100 mg/kg
[2]; i.p.
  A/B (index thérapeutique lié à la toxicité aiguë): 15,8
[2]; ip, i.p.
  ED50: 5.4 mg/kg
[2]; os
  A/B (index thérapeutique lié à la toxicité aiguë): 25,1
[2]; po, os
  ED50: 4 mg/kg
[3]; at anorectic doses
  taux cérébraux de sérotonine (result in words): réduction importante de sérotonine cérébrale
[3]; i.p., 5,0 mg/kg, 1 h.
  taux cérébraux de sérotonine % par rapport aux contrôles: 82,9 * %
[3]; i.p., 7,5 mg/kg, 1 h.
  taux cérébraux de sérotonine % par rapport aux contrôles: 81,6 * %
[3]; i.p., 7,5 mg/kg, 2 h.
  taux cérébraux de sérotonine % par rapport aux contrôles: 53,1 ** %
[4]
  IC50: > 10 µM

## CN1CC=C(c2cccc(C(F)(F)F)c2)CC1 [CM 57548, chlorhydratede 4-(3-trifluorométhylphényl)-1-méthyl-1,2,3,6-tétrahydropyridine]
[1]; ip
  LD50: 186 mg/kg
[2]; i.p.
  A/B (index thérapeutique lié à la toxicité aiguë): 15,2
[2]; ip, i.p.
  ED50: 12.2 mg/kg

## CCCCCN1CC=C(c2cccc(C(F)(F)F)c2)CC1 [CM 57756, chlorhydratede 4-(3-trifluorométhylphényl)-1-n-pentyl-1,2,3,6-tétrahydropyridine]
[1]; po, os
  LD50: 311 mg/kg
[2]; os
  A/B (index thérapeutique lié à la toxicité aiguë): 35,4
[2]; po, os
  ED50: 8.8 mg/kg
[3]; os, 15 mg/kg, 2 h.
  taux cérébraux de sérotonine % par rapport aux contrôles: 125 * %
[3]; os, 7,5 mg/kg, 2 h.
  taux cérébraux de sérotonine % par rapport aux contrôles: 138 ** %

## CCCN1CC=C(c2cccc(C(F)(F)F)c2)CC1 [CM 57545, chlorhydratede 4-(3-trifluorométhylphényl)-1-propyl-1,2,3,6-tétrahydropyridine]
[1]; ip
  LD50: 124 mg/kg
[1]; po, os
  LD50: 178 mg/kg
[2]; i.p.
  A/B (index thérapeutique lié à la toxicité aiguë): 17,7
[2]; ip, i.p.
  ED50: 7 mg/kg
[2]; os
  A/B (index thérapeutique lié à la toxicité aiguë): 22,2
[2]; po, os
  ED50: 8 mg/kg
[3]; i.p., 15 mg/kg, 2 h.
  taux cérébraux de sérotonine % par rapport aux contrôles: 112%
[3]; i.p., 7,5 mg/kg, 2 h.
  taux cérébraux de sérotonine % par rapport aux contrôles: 103%

## FC(F)(F)c1cccc(C2=CCNCC2)c1 [CM 57235, chlorhydratede 4-(3-triflüorométhylphényl)-1,2,3,6-tétrahydropyridine]
[1]; ip
  LD50: 94.6 mg/kg
[1]; po, os
  LD50: 346 mg/kg
[2]; i.p.
  A/B (index thérapeutique lié à la toxicité aiguë): 11,2
[2]; ip, i.p.
  ED50: 8.4 mg/kg
[2]; os
  A/B (index thérapeutique lié à la toxicité aiguë): 22
[2]; po, os
  ED50: 15.7 mg/kg
[3]; i.p., 15 mg/kg, 1 h.
  taux cérébraux de sérotonine % par rapport aux contrôles: 106%
[3]; i.p., 15 mg/kg, 2 h.
  taux cérébraux de sérotonine % par rapport aux contrôles: 102%
[3]; i.p., 7,5 mg/kg, 2 h.
  taux cérébraux de sérotonine % par rapport aux contrôles: 112,0%
